Data taken from patent US5688805A, “Tricyclic derivatives, compositions and methods of use” (Schering Corporation, priority 1995, dated 1997).

Columns and labels:
TNF-α = assay: In Vitro Study: Inhibition of LPS-Induced TNF-α Production From the Murine Cell Line WEHI-265; format: cell-based; settings: for inhibition at 10 µM: Mus musculus, WEHI-265 cells, LPS, 20-24 hours
Method: This test procedure is a standard test used to determine anti-TNF-α activity and to evaluate the usefulness of said compounds for counteracting the biological effects of TNF-α.
In Vitro Study: Inhibition of LPS-Induced TNF-α Production From the Murine Cell Line WEHI-265
1) Cells (obtained from cell cultures containing ≤10^6 cells/ml) are suspended at 0.2×10^6 cells/ml in complete medium (RPMI1640, with 10% FCS, 10^-5 M 2-ME, 2 mM glutamine and 10 mM HEPES buffer) and plated in CoStar 24 well plates (1.0 ml/well).
2) Compounds are dissolved in the appropriate vehicle at 400 times the concentration to be tested, and 5 μl of compound is added to the wells.
3) LPS (from E. coli 0111:B4) is diluted to 6 μg/ml and 1.0 ml is added to wells.
4) Plates are incubated 20-24 hours in 37° C. CO2 incubator.
5) Supernatant fluids are collected and analyzed for TNF content as described in J. lmmunol., 142:3884.

[1] = tested on: LPS/Galactosamine-Induced Lethality; assay: In Vivo Study: Inhibition of LPS/Galactosamine-Induced Lethality; parameters: species or system Mice (C57BI/6J males); settings: 25 mg/kg orally or i.p. one hour before LPS (100 ng) and d-galactosamine (8 mg) i.p.; survival at 24 hours
Method: This test procedure is a standard test used to determine activity against septic shock.
3. In Vivo Study: Inhibition of LPS/Galactosamine-Induced Lethality
Mice (C57BI/6J males, 6-8 weeks of age) are dosed with the indicated compound (dissolved in CMC suspension vehicle; compounds are given orally or i.p. one hour before challenge with LPS and d-galactosamine).
Mice are challenged i.p. with a mixture of LPS (from E. coli 0111:B4; 100 ng) and d-galactosamine (8 mg).
Survival is determined 24 hours after challenge. See procedure

TNF = assay: In Vivo Study: Inhibition of LPS-Induced Serum TNF; parameters: species or system Mice (C57BI/6J males); settings: Mus musculus, 1.5 h; 25 mg/kg orally or i.p. one hour before LPS (50 μg i.p.); bled 90 min after LPS; serum TNF by ELISA
Method: In addition to the in vitro test described above, the following in vivo test was also performed on several of the compounds of the present invention.
2. In Vivo Study: Inhibition of LPS-Induced Serum TNF
1) Mice (C57BI/6J males, 6-8 weeks of age) are dosed with the indicated compound (dissolved in CMC suspension vehicle; compounds are given orally or i.p. one hour before LPS challenge).
3) Mice are bled 90 min after LPS challenge.
4) Sera are analyzed for TNF content by ELISA as described in J. Immunol.

## C=CCC1(C2=CCN(C)CC2)c2ccccc2CCc2ccccc21 [Compound IB, 4-[10,11-dihydro-5-(2-propenyl)-5H-dibenzo[a,d]cyclohepten-5-yl]-1-methyl-1,2,5,6-tetrahydropyridine]
TNF-α
  inhibition at 10 µM: 70%
[1]
  # DEAD/TOTAL AT 25 MG/KG: 0/8
TNF
  inhibition in vivo at 25 mg/kg: 80%

## c1ccc2c(c1)CCc1ccccc1C2C1CCCNC1 (stereo not drawn) [Compound ID, 3-(10,11-dihydro-5H-dibenzo[a,d]cyclohepten-5-yl)-piperidine acetic acid]
TNF-α
  inhibition at 10 µM: 51%

## C=CCC1(C2=CCNCC2)c2ccccc2CCc2ccccc21 [Compound IE, 4-[10,11-dihydro-5-(2-propenyl)-5H-dibenzo[a,d]cyclohepten-5-yl]-1,2,5,6-tetrahydro(1H)-pyridine]
TNF-α
  inhibition at 10 µM: 61%
[1]
  # DEAD/TOTAL AT 25 MG/KG: 7/8

## CCCC1(C2=CCN(C)CC2)c2ccccc2CCc2ccccc21 [Compound IF, 4-[10,11-dihydro-5-propyl-5H-dibenzo[a,d]cyclohepten-5-yl]-1-methyl-1,2,5,6-tetrahydropyridine]
TNF-α
  inhibition at 10 µM: 28%
[1]
  # DEAD/TOTAL AT 25 MG/KG: 5/8
TNF
  inhibition in vivo at 25 mg/kg: 50%

## C=CCC1(C2=CCN(C(C)=O)CC2)c2ccccc2CCc2ccccc21 [Compound IG, 1-acetyl-4-[10,11-dihydro-5-(2-propenyl)-5H-dibenzo[a,d]cyclohepten-5-yl]-1,2,5,6-tetrahydro-1H-pyridine]
TNF-α
  inhibition at 10 µM: 27%

## CCCC1(C2CCN(C)CC2)c2ccccc2CCc2ccccc21 [Compound IJ, 4-[10,11-dihydro-5-propyl-5H-dibenzo[a,d]cyclohepten-5-yl]-1-methylpiperidine]
TNF-α
  inhibition at 10 µM: 55%

## CN1CC=C(C2c3ccccc3CCc3ccccc32)CC1 [Compound IL, 4-(10,11-dihydro-5H-dibenzo[a,d]cyclohepten-5-yl)-1-methyl-1,2,5,6-tetrahydropyridine]
TNF-α
  inhibition at 10 µM: 23%
[1]
  # DEAD/TOTAL AT 25 MG/KG: 1/9
TNF
  inhibition in vivo at 25 mg/kg: 58%

## C=CCC1(C2=CC[N+](C)(C)CC2)c2ccccc2CCc2ccccc21.[I-] [Compound IM, 4-[10,11-dihydro-5-(2-propenyl)-5H-dibenzo[a,d]cyclohepten-5-yl]-1,1-dimethyl-1,2,5,6-tetrahydropyridinium iodide]
TNF-α
  inhibition at 10 µM: 8%
[1]
  # DEAD/TOTAL AT 25 MG/KG: 2/11
TNF
  inhibition in vivo at 25 mg/kg: 27%

## C=CCC1(C2=CCN(Cc3ccccc3)CC2)c2ccccc2CCc2ccccc21 [Compound IN, 4-[10,11-dihydro-5-(2-propenyl)-5H-dibenzo[a,d]cyclohepten-5-yl]-1-(phenylmethyl)-1,2,5,6-tetrahydro-1H-pyridine]
TNF-α
  inhibition at 10 µM: 25%
[1]
  # DEAD/TOTAL AT 25 MG/KG: 10/10
TNF
  inhibition in vivo at 25 mg/kg: 42%

## C=CCC1(C2=CCN(C(C)C)CC2)c2ccccc2CCc2ccccc21 [Compound IP]
TNF-α
  inhibition at 10 µM: 62%
[1]
  # DEAD/TOTAL AT 25 MG/KG: 6/10
TNF
  inhibition in vivo at 25 mg/kg: 28%

## CN1CCCC(C2c3ccccc3CCc3ccccc32)C1 (stereo not drawn) [Compound IR, 3-(10,11-dihydro-5H-dibenzo[a,d]cyclohepten-5-yl)-1-methyl-piperidine]
TNF-α
  inhibition at 10 µM: 60%

## C[N+]1(C)CC=C(C2c3ccccc3CCc3ccccc32)CC1 [Compound IY, 4-(10,11-dihydro-5H-dibenzo[a,d]cyclohepten-5-yl)-1,1-dimethyl-1,2,5,6-tetrahydropyridinium iodide]
TNF-α
  inhibition at 10 µM: 12%

## CN1CCC(C2c3ccccc3CCc3ccccc32)CC1 [Compound K, reference compound]
TNF-α
  inhibition at 10 µM: 17%
TNF-α; general statement
  anti-TNF-α activity (in words): has anti-TNF-α activity
[1]
  # DEAD/TOTAL AT 25 MG/KG: 0/10
TNF
  inhibition in vivo at 25 mg/kg: 82%

## C=CCC1(C2=CCN(C)CC2)c2ccccc2CCc2ccc(Cl)cc21 (stereo not drawn) [IA]
TNF-α
  inhibition at 10 µM: 80%

## C=CCC1(C2=CCN(C(=O)OCC)CC2)c2ccccc2CCc2ccccc21 [IC]
TNF-α
  inhibition at 10 µM: 20%
[1]
  # DEAD/TOTAL AT 25 MG/KG: 4/8

## C=CCC1(C2=CCN(C)CC2)c2ccccc2C=Cc2ccccc21 [IH]
TNF-α
  inhibition at 10 µM: 6%
[1]
  # DEAD/TOTAL AT 25 MG/KG: 4/9
TNF
  inhibition in vivo at 25 mg/kg: 8%

## CN1CC=C(C2(Cc3ccccc3)c3ccccc3CCc3ccccc32)CC1 [IK]
TNF-α
  inhibition at 10 µM: 61%
[1]
  # DEAD/TOTAL AT 25 MG/KG: 5/9
TNF
  inhibition in vivo at 25 mg/kg: 45%

## CC(C)=CCC1(C2=CCN(C)CC2)c2ccccc2CCc2ccccc21 [IQ]
TNF-α
  inhibition at 10 µM: 62%
[1]
  # DEAD/TOTAL AT 25 MG/KG: 4/10
TNF
  inhibition in vivo at 25 mg/kg: 28%

## CN1CC=C(C2(C)c3ccccc3CCc3ccccc32)CC1 [IS]
TNF-α
  inhibition at 10 µM: 61%
TNF
  inhibition in vivo at 25 mg/kg: 26%

## CC1(C2=CC[N+](C)(C)CC2)c2ccccc2CCc2ccccc21 [IT]
TNF-α
  inhibition at 10 µM: 9%
TNF
  inhibition in vivo at 25 mg/kg: 3%

## C=CCC1(C2=CCN(C)CC2)c2ccccc2CCc2cccnc21 (stereo not drawn) [IX]
TNF-α
  inhibition at 10 µM: 38%
[1]
  # DEAD/TOTAL AT 25 MG/KG: 9/9
TNF
  inhibition in vivo at 25 mg/kg: 56%
